Data as given in patent US10350202B2, “Composition and method for treating skin conditions” (442 Ventures, LLC, priority 2010, dated 2019).

Tested on: warts
Test: In vivo treatment of warts
Design: species or system human
Conditions: topical application to warts
Description: A composition including an imidazoquinoline compound; and a retinoid agent was tested in vivo. Imiquimod (5% (wt/wt)) and tazarotene (0.1% (wt/wt) were combined in a 1:1 ratio. The resulting composition was topically applied to individual warts in approximately 30 patients. The patients had various types of warts (thick and thin) in varying locations including palms, soles, hands, legs, feet, trunk, and extremities (including periungual). The composition could be used occluded or non-occluded, at the patient's option.

| Structure (SMILES) | treatment result on warts (in words) |
| --- | --- |
| CC(C)Cn1cnc2c(N)nc3ccccc3c21 [imiquimod, 1-(2-methylpropyl)-1H-imidpzo[4,5-c]quinolin-4-amine] | not as efficacious |
| CCOC(=O)c1ccc(C#Cc2ccc3c(c2)C(C)(C)CCS3)nc1 [tazarotene] | not as efficacious |
